Experimental data reported in patent publication US7094600B2, “Screen for sodium channel modulators” (The Research Foundation of State University of New York, priority 2003, dated 2006).
Values joined by “and” are separate entries in the source; they are usually repeats but may differ in a detail not shown here. Identical values can stand only once. Like-named read-outs stand apart in the source and are kept apart here.

Key:
[1] = biological target: T1, hNav1.4-L443C/A444W Na+ channels (Homo sapiens, UniProt P35499, A444W/L443C); assay: Whole-cell patch clamp of hNav1.4-L443C/A444W mutant Na+ channels in stably transfected HEK293 cells; type: cell-based
T1 construct: full-length hNav1.4 cDNA inserted in the pRc/CMV vector; expressed in transfected cells; pRc/CMV vector

[2] = test system: pronase-treated Na+ channels; conditions: cited from earlier work
IFM/QQQ mutant channels = conditions: cited from earlier work
[3] = biological target: T2, rNav1.4 Na+ channels (wild-type) (Rattus norvegicus, UniProt P15390); assay: Whole-cell patch clamp of wild-type rNav1.4 Na+ currents in transfected HEK293t cells; type: cell-based; design: time constant of recovery from inactivated block / block of peak Na+ currents (resting state): dose or concentration left out as unconfirmed; conditions: for time for full recovery from flecainide block (dissociation): holding potential −140 mV, block developed after channel activation
T2 construct: expressed in transfected cells; host or cells: HEK293t, transient, calcium phosphate; pcDNA1/Amp vector

[4] = biological target: T3, rNav1.4-L435W/L437C/A438W mutant channels (Rattus norvegicus, UniProt P15390, A438W/L435W/L437C); assay: Whole-cell patch clamp of inactivation-deficient rNav1.4-L435W/L437C/A438W mutant channels in HEK293t cells; type: cell-based
T3 construct: expressed in transfected cells; host or cells: HEK293t, transient, calcium phosphate; pcDNA1/Amp vector

[5] = as antiarrhythmic agent; cited from earlier work
[6] = 10 μM, external, 100-ms test pulse at +50 mV
[7] = 30 μM flecainide, 10 s conditioning prepulses -180 to -10 mV, test +30 mV

T1 sequence (P35499 whole entry L443C/A444W): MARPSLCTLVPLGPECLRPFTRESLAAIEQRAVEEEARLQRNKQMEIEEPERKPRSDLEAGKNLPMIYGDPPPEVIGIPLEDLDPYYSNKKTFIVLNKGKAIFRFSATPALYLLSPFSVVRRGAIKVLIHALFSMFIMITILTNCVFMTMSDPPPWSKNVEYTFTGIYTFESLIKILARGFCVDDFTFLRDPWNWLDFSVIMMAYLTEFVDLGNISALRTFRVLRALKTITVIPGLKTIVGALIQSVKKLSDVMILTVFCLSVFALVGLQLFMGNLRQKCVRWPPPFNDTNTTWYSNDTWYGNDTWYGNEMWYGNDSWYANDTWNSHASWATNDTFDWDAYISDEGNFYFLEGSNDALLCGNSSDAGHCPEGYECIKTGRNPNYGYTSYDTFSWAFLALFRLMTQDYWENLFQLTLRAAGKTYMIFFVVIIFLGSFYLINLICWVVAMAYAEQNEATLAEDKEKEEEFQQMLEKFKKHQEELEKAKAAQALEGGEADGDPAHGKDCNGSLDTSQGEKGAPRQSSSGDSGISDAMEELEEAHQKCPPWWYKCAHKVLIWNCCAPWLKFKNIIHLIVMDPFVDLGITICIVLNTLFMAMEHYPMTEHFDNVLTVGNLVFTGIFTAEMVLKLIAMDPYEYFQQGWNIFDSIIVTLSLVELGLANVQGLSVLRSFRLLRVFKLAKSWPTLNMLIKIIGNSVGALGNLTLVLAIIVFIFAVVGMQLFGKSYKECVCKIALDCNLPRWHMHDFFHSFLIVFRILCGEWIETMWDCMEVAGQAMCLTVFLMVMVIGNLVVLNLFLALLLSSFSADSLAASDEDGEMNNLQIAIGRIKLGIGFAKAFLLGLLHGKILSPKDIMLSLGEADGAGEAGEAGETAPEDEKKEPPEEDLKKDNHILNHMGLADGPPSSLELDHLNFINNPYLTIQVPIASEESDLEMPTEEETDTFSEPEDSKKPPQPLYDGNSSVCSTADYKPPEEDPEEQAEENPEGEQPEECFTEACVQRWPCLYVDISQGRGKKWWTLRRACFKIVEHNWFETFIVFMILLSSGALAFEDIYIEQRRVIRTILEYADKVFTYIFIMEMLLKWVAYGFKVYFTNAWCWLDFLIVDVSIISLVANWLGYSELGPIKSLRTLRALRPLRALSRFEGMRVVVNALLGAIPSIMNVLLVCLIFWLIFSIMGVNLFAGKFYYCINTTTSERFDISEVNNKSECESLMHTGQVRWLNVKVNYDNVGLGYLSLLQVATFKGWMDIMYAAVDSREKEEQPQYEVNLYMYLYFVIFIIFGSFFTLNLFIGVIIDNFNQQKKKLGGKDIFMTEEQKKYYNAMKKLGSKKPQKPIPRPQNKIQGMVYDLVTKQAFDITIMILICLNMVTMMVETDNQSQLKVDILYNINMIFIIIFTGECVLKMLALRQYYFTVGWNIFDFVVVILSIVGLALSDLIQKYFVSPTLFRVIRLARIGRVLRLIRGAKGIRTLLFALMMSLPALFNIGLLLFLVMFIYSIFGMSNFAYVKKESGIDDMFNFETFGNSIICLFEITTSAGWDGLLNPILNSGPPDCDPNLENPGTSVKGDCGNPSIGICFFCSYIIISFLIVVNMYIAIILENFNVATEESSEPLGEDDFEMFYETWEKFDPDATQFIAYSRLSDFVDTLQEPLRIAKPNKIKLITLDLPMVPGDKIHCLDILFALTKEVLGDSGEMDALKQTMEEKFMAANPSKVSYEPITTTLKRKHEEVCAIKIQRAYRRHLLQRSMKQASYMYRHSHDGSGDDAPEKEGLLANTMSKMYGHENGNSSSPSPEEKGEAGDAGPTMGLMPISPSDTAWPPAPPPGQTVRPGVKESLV
T3 sequence (P15390 whole entry L435W/L437C/A438W): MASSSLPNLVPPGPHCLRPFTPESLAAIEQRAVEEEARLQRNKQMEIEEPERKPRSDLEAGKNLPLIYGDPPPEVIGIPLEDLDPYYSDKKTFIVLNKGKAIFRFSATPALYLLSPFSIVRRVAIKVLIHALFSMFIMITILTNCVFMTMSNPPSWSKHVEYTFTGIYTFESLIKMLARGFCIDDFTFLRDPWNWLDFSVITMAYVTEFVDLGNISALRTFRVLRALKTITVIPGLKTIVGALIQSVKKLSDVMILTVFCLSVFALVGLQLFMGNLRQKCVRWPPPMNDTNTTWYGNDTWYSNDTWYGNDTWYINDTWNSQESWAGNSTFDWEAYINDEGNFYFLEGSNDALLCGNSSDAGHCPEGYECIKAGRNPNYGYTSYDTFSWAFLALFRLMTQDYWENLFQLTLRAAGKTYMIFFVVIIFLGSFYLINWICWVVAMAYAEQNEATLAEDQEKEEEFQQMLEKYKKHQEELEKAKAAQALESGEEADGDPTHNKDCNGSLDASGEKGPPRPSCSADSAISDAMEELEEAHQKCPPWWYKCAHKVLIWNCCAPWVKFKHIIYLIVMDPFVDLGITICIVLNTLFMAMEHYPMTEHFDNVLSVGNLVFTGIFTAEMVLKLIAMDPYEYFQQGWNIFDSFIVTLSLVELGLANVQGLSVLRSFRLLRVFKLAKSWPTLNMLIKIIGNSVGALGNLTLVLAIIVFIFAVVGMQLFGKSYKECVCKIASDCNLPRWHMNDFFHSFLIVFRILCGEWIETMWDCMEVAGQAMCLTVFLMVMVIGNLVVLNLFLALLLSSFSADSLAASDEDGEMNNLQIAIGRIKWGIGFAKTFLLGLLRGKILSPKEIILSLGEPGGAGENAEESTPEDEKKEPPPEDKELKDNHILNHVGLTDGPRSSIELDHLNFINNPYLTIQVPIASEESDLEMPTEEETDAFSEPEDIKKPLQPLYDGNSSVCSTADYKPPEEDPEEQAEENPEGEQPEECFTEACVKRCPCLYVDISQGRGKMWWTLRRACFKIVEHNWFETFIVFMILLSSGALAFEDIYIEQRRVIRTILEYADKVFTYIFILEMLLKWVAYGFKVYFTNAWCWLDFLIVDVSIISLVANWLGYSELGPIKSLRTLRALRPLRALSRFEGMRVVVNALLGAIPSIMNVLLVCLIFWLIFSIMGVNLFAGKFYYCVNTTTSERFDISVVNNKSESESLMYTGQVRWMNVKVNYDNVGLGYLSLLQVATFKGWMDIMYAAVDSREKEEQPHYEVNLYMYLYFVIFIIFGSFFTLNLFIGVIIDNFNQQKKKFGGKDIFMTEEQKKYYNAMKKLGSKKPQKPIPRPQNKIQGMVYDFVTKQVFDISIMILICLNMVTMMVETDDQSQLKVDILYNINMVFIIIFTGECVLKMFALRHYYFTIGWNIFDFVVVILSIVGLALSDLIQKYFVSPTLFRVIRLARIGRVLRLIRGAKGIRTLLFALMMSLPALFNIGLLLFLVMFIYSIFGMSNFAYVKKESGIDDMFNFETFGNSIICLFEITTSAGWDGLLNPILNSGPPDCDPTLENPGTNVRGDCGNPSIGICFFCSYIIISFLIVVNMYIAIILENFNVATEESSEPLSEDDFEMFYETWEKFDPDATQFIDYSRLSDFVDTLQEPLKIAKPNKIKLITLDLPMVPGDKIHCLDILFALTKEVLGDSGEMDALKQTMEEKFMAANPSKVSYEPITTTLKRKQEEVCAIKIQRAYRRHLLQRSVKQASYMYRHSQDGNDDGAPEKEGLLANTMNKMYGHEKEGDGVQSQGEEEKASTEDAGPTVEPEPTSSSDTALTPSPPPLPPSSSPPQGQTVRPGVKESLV
T3 sequence (Q00954 19-218 partner): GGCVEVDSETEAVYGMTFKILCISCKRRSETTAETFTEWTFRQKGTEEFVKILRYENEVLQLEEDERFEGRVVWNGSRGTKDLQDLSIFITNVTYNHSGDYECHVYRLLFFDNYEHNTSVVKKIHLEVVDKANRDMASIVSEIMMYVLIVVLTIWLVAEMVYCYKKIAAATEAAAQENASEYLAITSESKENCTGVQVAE
T2 sequence (P15390 whole entry): as the sequence (P15390 whole entry L435W/L437C/A438W) above, with W435L, C437L, W438A counted along it
T2 sequence (Q00954 19-218 partner): as the sequence (Q00954 19-218 partner) above

Compound: CCCNC[C@H](O)COc1ccccc1C(=O)CCc1ccccc1.Cl [(S)-propafenone, (S)-Propafenone-HCl]
- inhibition of peak Na+ currents ([1]; 10 μM, external): also inhibited, but to a lesser extent
- block of persistent late Na+ currents [1, 6]: potently blocks

Compound: CC[N+](CC)(CC)CC(=O)Nc1c(C)cccc1C [QX-314]
- block of inactivation-deficient Na+ currents [2]: does not block

Compound: NC1=N[C@H](O)[C@H]2[C@H]3O[C@]4(O)O[C@@H]([C@@H](O)[C@@]2(N1)[C@@H]4O)[C@]3(O)CO [TTX, Tetrodotoxin]
- Hill coefficient [1]: 1.09±0.04
- time-dependent block by TTX [1]: no evidence of a time-dependent block

Compound: CCCCc1oc2ccccc2c1C(=O)c1cc(I)c(OCCN(CC)CC)c(I)c1 [amiodarone]
- block of persistent late Na+ currents [1]: Most, if not all, persistent late currents were inhibited
- inhibition of peak Na+ currents [1]: also reduced slowly, but again to a lesser extent
- time to steady-state block of late Na+ currents (wash-in) [1]: 15 min
- wash-out of block [1]: slow and incomplete

Compound: CC(C)N(CCC(C(N)=O)(c1ccccc1)c1ccccn1)C(C)C (stereo not drawn) [disopyramide]
- open-channel block in IFM/QQQ mutant channels (IFM/QQQ mutant channels): weak open-channel block

Compound: O=C(NCC1CCCCN1)c1cc(OCC(F)(F)F)ccc1OCC(F)(F)F (stereo not drawn) [flecainide]
- IC50 [3]: ~400 µM
- time constant of recovery from inactivated block [3]: > 100 s
- V0.5 of Boltzmann fit, voltage dependence of flecainide block [3, 7]: −57.3±2.7 mV
- kE (slope factor) of Boltzmann fit, voltage dependence of flecainide block [3, 7]: 17.6±2.1 mV
- time for flecainide block to reach steady state ([3]; 30 mM flecainide, +50 mV pulses at 30-s interval): 5 to 7 min
- inhibition at 30000 µM ([3]; HEK-293T, read-out: peak currents inhibited after flecainide block reached steady state): ~50%
- time constant of development of the inactivated block ([3]; at −50 mV): 10.9 ± 1.3 s
- block of peak Na+ currents (resting state) ([3]; cell not stimulated repetitively in 1,000 s): ~20%
- time for full recovery from flecainide block (dissociation) [3]: ≥ 1,000 s
- time for full recovery from flecainide block (dissociation) ([3]; listed as Flecainide): up to 10,000 s
- additional use-dependent block ([3]; repetitive pulses at 5 Hz for 60 pulses): ~50%
- difference between the high and low flecainide affinities ([3]; −20 mV vs −140 mV conditioning): less than 3 fold
- time to steady state block at each concentration ([4]; 140 ms test pulse to +30 mV every 30 seconds, 0.1 to 30 μM): ≤ 5 min
- block of the maintained Na+ currents ([4]; at +50 mV, 0.1 to 30 μM flecainide): strong time-dependent block
- time constant of recovery from the open channel block ([4]; at −140 mV): 11.2 s
- IC50 ([4]; conditioning pulse −50 mV, 10 s, read-out: IC50 with a conditioning pulse at −50 mV for 10 s (estimated block at the peak current)): 4.1 ± 0.1 µM
- Kd ([4]; from off-rate/on-rate, read-out: calculated dissociation constant (open channel)): 0.81 µM
- difference of resting and open channel affinities ([4]; inactivation-deficient mutant channels): ~500 fold
- IC50 ([4]; open channel, read-out: IC50 for the open block (estimated block at the end of the pulse)): 0.61 ± 0.07 µM
- IC50 ([4]; resting channel, holding −140 mV, read-out: IC50 for the resting block (estimated block at the peak current)): 208 µM and 307 µM
- on-rate constant with the open channel ([4]; test pulse +30 mV, slope of 1/τ vs concentration): 1.49e+07 M⁻¹ s⁻¹
- off-rate constant with the open channel ([4]; test pulse +30 mV, y-intercept of 1/τ vs concentration): 12.2 s⁻¹
- block of persistent late Na+ currents [1, 6]: strong block
- open-channel block in IFM/QQQ mutant channels (IFM/QQQ mutant channels): weak open-channel block

Compound: Cc1cccc(C)c1OCC(C)N (stereo not drawn) [mexiletine]
- block of persistent late Na+ currents [1, 6]: strong block
- therapeutic plasma concentration [5]: 2.8 to 11.2 µM

Compound: batrachotoxin [BTX]
- activation threshold of BTX-modified Na+ currents ([1]; 5 μM BTX in pipette solution): −80 mV
- effect on fast and slow inactivation ([1]; 5 μM BTX in pipette solution): completely eliminates the fast and the slow inactivation
- shift of activation threshold ([1]; 5 μM BTX in pipette solution, after 400 repetitive pulses at +50 mV, 1 Hz): ~−40 mV
